Measurements from patent US12612409B2, “Pyrrolopyrimidines as CFTR potentiators” (Cystic Fibrosis Foundation, priority 2016, dated 2026).

Biological target: T1, recombinant F508del V470 CFTR in Fischer rat thyroid (FRT) cells (Homo sapiens, UniProt P13569, DEL508-508)
T1 construct: expressed in transfected cells
Assay: FRT ion flux assay of F508del CFTR potentiation
Format: cell-based
Details: FRT cells expressing F508del V470 CFTR, forskolin 20 uM, 27° C. pre-incubation
Procedure: FRT Ion Flux Assay of F508del CFTR Potentiation
Fischer rat thyroid (FRT) cell lines stably expressing recombinant F508del V470 CFTR and halide-sensitive yellow fluorescent protein (Pedemonte et al., J. Clin. Invest. 115(9) 2564-71 (2005)) were seeded at 25,000 cells/well in 50 uL/well of culture medium into black-walled, clear bottom tissue-culture-treated 384-well plates (Corning, cat. no. 3712). After one day, the cells were pre-incubated at 27° C./5% CO2 for 16-24 hours. The cells were then washed with dPBS and treated with forskolin (20 uM) and test compound for 30 mi by addition of 20 uL of compound dilution buffer (dPBS containing forskolin and test compound). Plates were loaded into FLIPR384 fluorescence imaging plate reader (Molecular Devices). After an initial fluorescence reading, iodide buffer (25 uL) (composition (in mM): 137 NaI, 1.5 K2PO4, 8.1 NaH2PO4, 2.7 KCl, 0.5 MgCl2, 1 CaCl2) was added and a second fluorescence reading was made after approximately 21 seconds. Data treatment involved division of the second fluorescence reading by the initial fluorescence reading, then scaling of the resulting normalized endpoint fluorescence with respect to the responses for DMSO (0%) and a positive control potentiator (100%).

T1 sequence (P13569 with tags, fused parts or gaps DEL508-508): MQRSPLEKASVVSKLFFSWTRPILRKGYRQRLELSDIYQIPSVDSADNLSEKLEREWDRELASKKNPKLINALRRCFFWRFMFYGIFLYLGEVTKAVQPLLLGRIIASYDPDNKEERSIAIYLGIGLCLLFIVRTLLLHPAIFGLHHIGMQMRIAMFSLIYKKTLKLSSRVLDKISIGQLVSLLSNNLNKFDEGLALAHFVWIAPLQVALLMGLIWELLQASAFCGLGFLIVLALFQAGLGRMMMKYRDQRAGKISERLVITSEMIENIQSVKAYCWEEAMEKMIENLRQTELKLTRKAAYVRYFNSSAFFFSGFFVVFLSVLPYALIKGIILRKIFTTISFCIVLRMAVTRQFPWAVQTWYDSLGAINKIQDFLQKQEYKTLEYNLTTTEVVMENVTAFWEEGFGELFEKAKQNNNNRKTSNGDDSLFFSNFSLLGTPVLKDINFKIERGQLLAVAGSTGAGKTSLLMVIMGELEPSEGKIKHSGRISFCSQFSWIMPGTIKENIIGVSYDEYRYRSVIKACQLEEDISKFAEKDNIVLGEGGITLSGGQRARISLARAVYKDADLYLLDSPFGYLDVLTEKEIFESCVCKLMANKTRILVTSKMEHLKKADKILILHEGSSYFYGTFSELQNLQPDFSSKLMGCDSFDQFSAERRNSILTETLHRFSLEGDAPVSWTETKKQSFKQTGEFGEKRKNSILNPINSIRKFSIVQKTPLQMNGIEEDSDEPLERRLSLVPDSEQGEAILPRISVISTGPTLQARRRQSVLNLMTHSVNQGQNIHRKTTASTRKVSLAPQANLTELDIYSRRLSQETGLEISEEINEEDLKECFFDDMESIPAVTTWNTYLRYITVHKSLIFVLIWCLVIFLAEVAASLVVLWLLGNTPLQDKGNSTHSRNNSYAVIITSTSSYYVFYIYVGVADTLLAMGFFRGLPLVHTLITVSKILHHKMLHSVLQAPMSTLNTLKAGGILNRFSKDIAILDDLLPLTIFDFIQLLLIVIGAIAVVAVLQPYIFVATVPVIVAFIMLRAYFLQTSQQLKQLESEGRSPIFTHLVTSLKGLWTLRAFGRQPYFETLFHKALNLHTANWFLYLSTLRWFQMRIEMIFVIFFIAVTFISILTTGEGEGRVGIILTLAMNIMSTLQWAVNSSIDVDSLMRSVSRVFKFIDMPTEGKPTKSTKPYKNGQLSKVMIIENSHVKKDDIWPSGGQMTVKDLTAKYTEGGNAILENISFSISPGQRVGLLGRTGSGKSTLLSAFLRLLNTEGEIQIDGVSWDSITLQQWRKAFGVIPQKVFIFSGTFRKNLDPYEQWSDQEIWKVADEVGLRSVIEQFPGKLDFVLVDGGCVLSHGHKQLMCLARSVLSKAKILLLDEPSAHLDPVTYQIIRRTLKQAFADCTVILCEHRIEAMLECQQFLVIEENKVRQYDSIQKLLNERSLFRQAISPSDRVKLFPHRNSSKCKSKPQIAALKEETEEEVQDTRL

**Q.** How did the EC50 turn out when Cc1ccc2cc(F)c(-c3cn(C(C)c4cnc(-c5ccccc5F)[nH]4)c4ncnc(N)c34)cc2n1 (stereo not shown) [Example 63, 5-(6-Fluoro-2-methylquinolin-7-yl)-7-{1-[2-(2-fluorophenyl)-1H-imidazol-5-yl]ethyl}-7H-pyrrolo[2,3-d]pyrimidin-4-amine] was run?
**A.** 4540 nM

**Q.** CC(c1cnc(-c2ccccc2F)[nH]1)n1cc(-c2ccc3c(c2)OCC(=O)N3)c2c(N)ncnc21 (stereo not shown) [Example 65, 7-(4-Amino-7-{1-[2-(2-fluorophenyl)-1H-imidazol-5-yl]ethyl}-7H-pyrrolo[2,3-d]pyrimidin-5-yl)-2H-1,4-benzoxazin-3(4H)-one] was tested. Which EC50 did it give?
**A.** 1420 nM

**Q.** With COc1cc2c(cc1-c1cn(C(C)c3cnc(-c4ccccc4F)[nH]3)c3ncnc(N)c13)CCC2 (stereo not shown) [Example 69, 7-{1-[2-(2-Fluorophenyl)-1H-imidazol-5-yl]ethyl}-5-(6-methoxy-2,3-dihydro-1H-inden-5-yl)-7H-pyrrolo[2,3-d]pyrimidin-4-amine] as the compound, how does the EC50 read?
**A.** 915 nM

**Q.** Which EC50 does the source give for CC(c1cnc(-c2ccccc2F)[nH]1)n1cc(-c2cn[nH]c2)c2c(N)ncnc21 (stereo not shown) [Example 71, 7-{1-[2-(2-Fluorophenyl)-1H-imidazol-5-yl]ethyl}-5-(1H-pyrazol-4-yl)-7H-pyrrolo[2,3-d]pyrimidin-4-amine] here?
**A.** 129 nM

**Q.** For Cn1ncc2ccc(-c3cn(Cc4cn(-c5ccccc5F)nn4)c4ncnc(N)c34)cc21 [Example 73, 7-{[1-(2-Fluorophenyl)-1H-1,2,3-triazol-4-yl]methyl}-5-(1-methyl-1H-indazol-6-yl)-7H-pyrrolo[2,3-d]pyrimidin-4-amine], which EC50 is on record?
**A.** 320 nM

**Q.** With Cn1cc2cc(-c3cn(Cc4cn(-c5ccccc5F)nn4)c4ncnc(N)c34)ccc2n1 [Example 76, 7-{[1-(2-Fluorophenyl)-1H-1,2,3-triazol-4-yl]methyl}-5-(2-methyl-2H-indazol-5-yl)-7H-pyrrolo[2,3-d]pyrimidin-4-amine] as the compound, how does the EC50 read?
**A.** 2380 nM

**Q.** For Cn1ncc2c(-c3cn(Cc4cn(-c5ccccc5F)nn4)c4ncnc(N)c34)cccc21 [Example 78, 7-{[1-(2-Fluorophenyl)-1H-1,2,3-triazol-4-yl]methyl}-5-(1-methyl-1H-indazol-4-yl)-7H-pyrrolo[2,3-d]pyrimidin-4-amine], which EC50 is on record?
**A.** 1380 nM

**Q.** Which EC50 does the source give for Nc1ncnc2c1c(-c1cnc3[nH]ccc3c1)cn2Cc1cn(-c2ccccc2F)nn1 [Example 80, 7-{[1-(2-Fluorophenyl)-1H-1,2,3-triazol-4-yl]methyl}-5-(7H-pyrrolo[2,3-b]pyridin-5-yl)-7H-pyrrolo[2,3-d]pyrimidin-4-amine] here?
**A.** 3780 nM

**Q.** How did the EC50 turn out when COc1cc(-c2cn(Cc3cn(-c4ccccc4F)nn3)c3ncnc(N)c23)ccc1C#N [Example 84, 4-(4-Amino-7-{[1-(2-fluorophenyl)-1H-1,2,3-triazol-4-yl]methyl}-7H-pyrrolo[2,3-d]pyrimidin-5-yl)-2-methoxybenzonitrile] was run?
**A.** 1560 nM

**Q.** Which EC50 does the source give for CC(=O)c1ccc(-c2cn(C(C)c3cn(-c4ccccc4F)nn3)c3ncnc(N)c23)s1 (stereo not shown) [Example 91, 1-[5-(4-Amino-7-{1-[1-(2-fluorophenyl)-1H-1,2,3-triazol-4-yl]ethyl}-7H-pyrrolo[2,3-d]pyrimidin-5-yl)thiophen-2-yl]ethanone] here?
**A.** 111 nM

**Q.** How did the EC50 turn out when CC(c1cn(-c2ccccc2F)nn1)n1cc(-c2cccc3c2cnn3C)c2c(N)ncnc21 (stereo not shown) [Example 92, 7-{1-[1-(2-Fluorophenyl)-1H-1,2,3-triazol-4-yl]ethyl}-5-(1-methyl-1H-indazol-4-yl)-7H-pyrrolo[2,3-d]pyrimidin-4-amine] was run?
**A.** 2420 nM

**Q.** For COc1cc2c(cc1-c1cn(C(C)c3cn(-c4ccccc4F)nn3)c3ncnc(N)c13)CCCC2 (stereo not shown) [Example 93, 7-{1-[1-(2-Fluorophenyl)-1H-1,2,3-triazol-4-yl]ethyl}-5-(3-methoxy-5,6,7,8-tetrahydronaphthalen-2-yl)-7H-pyrrolo[2,3-d]pyrimidin-4-amine], which EC50 is on record?
**A.** 691 nM

**Q.** For CC(c1cn(-c2ccccc2F)nn1)n1cc(-c2ccc3c(cnn3C)c2)c2c(N)ncnc21 (stereo not shown) [Example 95, 7-{1-[1-(2-Fluorophenyl)-1H-1,2,3-triazol-4-yl]ethyl}-5-(1-methyl-1H-indazol-5-yl)-7H-pyrrolo[2,3-d]pyrimidin-4-amine], which EC50 is on record?
**A.** 488 nM

**Q.** For CC(c1cn(-c2ccccc2F)nn1)n1cc(-c2cnc3ccccc3c2)c2c(N)ncnc21 (stereo not shown) [Example 100, 7-{1-[1-(2-Fluorophenyl)-1H-1,2,3-triazol-4-yl]ethyl}-5-(quinolin-3-yl)-7H-pyrrolo[2,3-d]pyrimidin-4-amine], which EC50 is on record?
**A.** 277 nM

**Q.** For CC(c1cc(-c2ccccc2F)no1)n1cc(-c2ccc3c(c2)C(=O)N(C)C3)c2c(N)ncnc21 (stereo not shown) [Example 101, 6-(4-Amino-7-{1-[3-(2-fluorophenyl)-1,2-oxazol-5-yl]ethyl}-7H-pyrrolo[2,3-d]pyrimidin-5-yl)-2-methyl-2,3-dihydro-1H-isoindol-1-one], which EC50 is on record?
**A.** 4060 nM

**Q.** CC(c1cc(-c2ccccc2F)no1)n1cc(-c2ccc3c(c2)OCCO3)c2c(N)ncnc21 (stereo not shown) [Example 102, 5-(2,3-Dihydro-1,4-benzodioxin-6-yl)-7-{1-[3-(2-fluorophenyl)-1,2-oxazol-5-yl]ethyl}-7H-pyrrolo[2,3-d]pyrimidin-4-amine] was tested. Which EC50 did it give?
**A.** 322 nM

**Q.** CC(c1cc(-c2ccccc2F)no1)n1cc(-c2ccnc3[nH]ccc23)c2c(N)ncnc21 (stereo not shown) [Example 103, 7-{1-[3-(2-Fluorophenyl)-1,2-oxazol-5-yl]ethyl}-5-(1H-pyrrolo[2,3-b]pyridin-4-yl)-7H-pyrrolo[2,3-d]pyrimidin-4-amine] was tested. Which EC50 did it give?
**A.** 5150 nM

**Q.** Which EC50 does the source give for CC(c1cc(-c2ccccc2F)no1)n1cc(-c2ccc3nonc3c2)c2c(N)ncnc21 (stereo not shown) [Example 104, 5-(2,1,3-Benzoxadiazol-5-yl)-7-{1-[3-(2-fluorophenyl)-1,2-oxazol-5-yl]ethyl}-7H-pyrrolo[2,3-d]pyrimidin-4-amine] here?
**A.** 331 nM

**Q.** CC(c1cc(-c2ccccc2F)no1)n1cc(-c2cc3cnccc3s2)c2c(N)ncnc21 (stereo not shown) [Example 106, 7-{1-[3-(2-Fluorophenyl)-1,2-oxazol-5-yl]ethyl}-5-(thieno[3,2-c]pyridin-2-yl)-7H-pyrrolo[2,3-d]pyrimidin-4-amine] was tested. Which EC50 did it give?
**A.** 2080 nM

**Q.** Which EC50 does the source give for CCC(c1cn(-c2ccc(F)c(F)c2)nn1)n1cc(-c2cncnc2OC)c2c(N)ncnc21 (stereo not shown) [Example 245, 7-{1-[1-(3,4-Difluorophenyl)-1H-1,2,3-triazol-4-yl]propyl}-5-[4-methoxypyrimidin-5-yl]-7H-pyrrolo[2,3-d] pyrimidin-4-amine] here?
**A.** 42.4 nM

**Q.** For CCC(c1cn(-c2ccc(F)cc2F)nn1)n1cc(-c2cncnc2OC)c2c(N)ncnc21 (stereo not shown) [Example 246, 7-{1-[1-(2,4-Difluorophenyl)-1H-1,2,3-triazol-4-yl]propyl}-5-[4-methoxypyrimidin-5-yl]-7H-pyrrolo[2,3-d] pyrimidin-4-amine], which EC50 is on record?
**A.** 17.2 nM

**Q.** How did the EC50 turn out when CC(c1cn(-c2ccccc2F)nn1)n1cc(C2COC2)c2c(N)ncnc21 (stereo not shown) [Example 250, 7-{1-[1-(2-Fluorophenyl)-1H-1,2,3-triazol-4-yl]ethyl}-5-(oxetan-3-yl)-7H-pyrrolo[2,3-d] pyrimidin-4-amine] was run?
**A.** 2200 nM

**Q.** With CCC(c1cn(-c2ccccc2F)nn1)n1cc(-c2nccnc2OC)c2c(N)ncnc21 (stereo not shown) [Example 251, 7-{1-[1-(2-Fluorophenyl)-1H-1,2,3-triazol-4-yl]propyl}-5-(3-methoxypyrazin-2-yl)-7H-pyrrolo [2,3-d]pyrimidin-4-amine] as the compound, how does the EC50 read?
**A.** 5.41 nM

**Q.** How did the EC50 turn out when Nc1ncnc2c1c(-c1ccc(Cl)cc1)cn2Cc1cn(-c2ccccc2F)cn1 [Example 265, 5-(4-Chlorophenyl)-7-{[1-(2-fluorophenyl)-1H-imidazol-4-yl]methyl}-7H-pyrrolo[2,3-d]pyrimidin-4-amine] was run?
**A.** 3880 nM

**Q.** Nc1ncnc2c1c(-c1ccc(Cl)cc1)cn2Cc1cn(C2CCCC2)nn1 [Example 281, 5-(4-Chlorophenyl)-7-[(1-cyclopentyl-1H-1,2,3-triazol-4-yl)methyl]-7H-pyrrolo[2,3-d]pyrimidin-4-amine] was tested. Which EC50 did it give?
**A.** 170 nM

**Q.** How did the EC50 turn out when Nc1ncnc2c1c(C1CN(C(=O)C3CC3)C1)cn2Cc1cn(-c2ccccc2F)nn1 [Example 292, [3-(4-Amino-7-{[1-(2-fluorophenyl)-1H-1,2,3-triazol-4-yl]methyl}-7H-pyrrolo[2,3-d]pyrimidin-5-yl)azetidin-1-yl](cyclopropyl) methanone] was run?
**A.** 3210 nM

**Q.** How did the EC50 turn out when Nc1ncnc2c1c(C1CN(S(=O)(=O)CC3CC3)C1)cn2Cc1cn(-c2ccccc2F)nn1 [Example 293, 5-{1-[(Cyclopropylmethyl)sulfonyl]azetidin-3-yl}-7-{[1-(2-fluorophenyl)-1H-1,2,3-triazol-4-yl]methyl}-7H-pyrrolo[2,3-d]pyrimidin-4-amine] was run?
**A.** 1890 nM

**Q.** With Nc1ncnc2c1c(-c1ccc(Cl)cc1)c(Br)n2Cc1cn(-c2cccc(F)c2)nn1 [Example 319, 6-Bromo-5-(4-chlorophenyl)-7-{[1-(3-fluorophenyl)-1H-1,2,3-triazol-4-yl]methyl}-7H-pyrrolo[2,3-d]pyrimidin-4-amine] as the compound, how does the EC50 read?
**A.** 194 nM
